# Experimental data published in patent US20090119801A1, “Method for preserving cut flowers, cut flower preservation kit, method for manufacturing processed cut flowers, and processed cut flowers” (SUNTORY FLOWERS LIMITED, priority 2007, published 2009).
# What was measured:
# [1] = logP; cited from earlier work
# [2] = Volatilization rate of organic solvents (Table 2); format: physicochemical
Structure (SMILES),volatilization rate (%) [2],partition coefficient [1]
"C1COCCO1 [1,4-dioxane]",,−0.271
CCCCC(CC)COCCOCCO (stereo not shown) [2-[2-(2-ethylhexyloxy)ethoxy]ethanol],0%,
"CC(O)CC(C)(C)O (stereo not shown) [2-methyl-2,4-pentanediol]",3%,
CO [Methanol],,−0.719
CC(C)=O [acetone],,−0.157
OCCO [ethylene glycol],0%,
OCC(O)CO [glycerin],0%,

# Now from value to compound, other results behind:
volatilization rate (%) [2],Structure (SMILES),partition coefficient [1]
1%,CCCCC(CC)COCCO (stereo not shown) [2-(2-ethylhexyloxy)ethanol],
0%,"CCCC(O)C(CC)CO (stereo not shown) [2-ethyl-1,3-hexanediol]",
0%,"CC(CCO)CCO [3-methyl-1,5-pentanediol]",
